The subject of series [1] is Acinetobacter baumannii. Description: Antibacterial activity against Acinetobacter baumannii ATCC 19606 assessed as inhibition of bacterial growth measured after 18 hrs by resazurin dye based analysis. The format is functional.
Series [2] deals with Candida albicans. Put plainly: Antifungal activity against Candida albicans ATCC 90028 assessed as fungal growth inhibition incubated for 36 hrs by resazurin dye based analysis. The series is classed as functional. (In general: The colour change of resazurin is a common sign of viable cells or microbes.)
Series [3] relates to Pseudomonas aeruginosa. Description: Antibacterial activity against Pseudomonas aeruginosa ATCC 27853 assessed as inhibition of bacterial growth measured after 18 hrs by resazurin dye based analysis. The series is classed as functional.
The subject of series [4] is Staphylococcus aureus. Description: Antibacterial activity against methicillin-resistant Staphylococcus aureus ATCC 43300 assessed as inhibition of bacterial growth measured after 18 hrs by resazurin dye based analysis. The series is classed as functional.
Series [5] relates to Pseudomonas aeruginosa. Put plainly: Antibiotic adjuvant activity against Pseudomonas aeruginosa ATCC 27853 assessed as doxycycline MIC measured after 18 hrs in presence of doxycycline. The format is functional.
Series [6] concerns Cryptococcus neoformans. Description: Antifungal activity against Cryptococcus neoformans ATCC 208821 assessed as fungal growth inhibition incubated for 36 hrs by resazurin dye based analysis. The format is functional.
Series [7] is described as follows: Cytotoxicity against HEK293 cells assessed as cell growth inhibition measured after 20 hrs by resazurin dye based assay. The format is toxicity. Particulars: human.
The test system of series [8] is Escherichia coli. Description: Antibacterial activity against Escherichia coli ATCC 25922 assessed as inhibition of bacterial growth measured after 18 hrs by resazurin dye based analysis. The series is classed as functional.
Series [9] relates to Klebsiella pneumoniae. Put plainly: Antibacterial activity against Klebsiella pneumoniae ATCC 700603 assessed as inhibition of bacterial growth measured after 18 hrs by resazurin dye based analysis. The format is functional.
A short description of series [10]: Selectivity index, ratio of IC50 for HEK293 to MIC for methicillin-resistant Staphylococcus aureus ATCC 43300. The series is classed as toxicity. Particulars: human, HEK293 cells; read-out: Selectivity Index.
Series [11] has as its system Saccharomyces cerevisiae. Description: Antifungal activity against Saccharomyces cerevisiae YJM789 assessed as fungal growth inhibition incubated for 24 hrs by plate reader method. The series is classed as functional, organism-based. The conditions noted are these: YJM789, 24 h.
Series [12] has as its system Saccharomyces cerevisiae. Put plainly: Antifungal activity against Saccharomyces cerevisiae PA3-10-3 variant assessed as fungal growth inhibition incubated for 24 hrs by plate reader method. The format is functional, organism-based.
Series [13] has as its system Saccharomyces cerevisiae. Description: Antifungal activity against Saccharomyces cerevisiae BY4743 assessed as fungal growth inhibition incubated for 24 hrs by plate reader method. The format is functional, organism-based. Particulars: BY4743, 24 h.
In series [14] the test system is Escherichia coli. Description: Antibiotic adjuvant activity against Escherichia coli ATCC 25922 assessed as erythromycin MIC measured after 18 hrs in presence of erythromycin. The series is classed as functional.

Molecules are shown by their SMILES. pIC50: −log10 of the molar value. Bounds are passed on as bounds.

As usually defined, the MIC is the smallest concentration in the dilution series that meets the test's criterion for growth inhibition. Broadly, the IC50 is the concentration needed to halve the response being measured. Usually pIC50 stands for the negative decadic logarithm of the IC50, by convention in mol/L.

`C[C@]1(C(=O)NCCCNCCCCCCCCCCCCN)CCC[C@]2(C)c3cc(OC(=O)NCCCNCCCCCCCCCCCCN)ccc3CC[C@@H]12.O=C(O)C(F)(F)F.O=C(O)C(F)(F)F.O=C(O)C(F)(F)F.O=C(O)C(F)(F)F`: the minimal inhibitory concentration (MIC) in [1] is 6.38 µM; in series [2] it was 25.5 µM; in series [3], above 25.5 µM; in [4] it was at most 0.2 µM; in series [5], 50 µM; in series [6], above 25.5 µM. The MIC in [8] was at most 0.2 µM; in [9] it was 12.8 µM. Also, the IC50 at 20 h in series [7] was 0.33 µM.
As to `C[C@]1(C(=O)NCCCNCCCCCCCCCCCCN)CCC[C@]2(C)c3cc(O)ccc3CC[C@@H]12.O=C(O)C(F)(F)F.O=C(O)C(F)(F)F`, the MIC is 43.1 µM in series [1]; 43.1 µM in series [2]; above 43.1 µM in [3]; 5.4 µM in [4]; 43.1 µM in [6]; 43.1 µM in series [8]. The MIC in [9] is above 43.1 µM. Besides, the IC50 at 20 h in [7] came to 26.2 µM. In addition, in series [10], the selectivity ratio came out at 4.9.
`C[C@]1(C(=O)O)CCC[C@]2(C)c3cc(OC(=O)CCCNCCCCCCCCCCNCCCNC(=O)Oc4ccc5c(c4)[C@@]4(C)CCC[C@](C)(C(=O)O)[C@@H]4CC5)ccc3CC[C@@H]12.O=C(O)C(F)(F)F.O=C(O)C(F)(F)F`: the MIC in series [1] was above 28.7 µM; in series [2], above 28.7 µM; in [3] it was above 28.7 µM; in series [4], above 28.7 µM; in series [6] it was 7.17 µM; in [8] it was above 28.7 µM. Further, the MIC in series [9] is above 28.7 µM. Further, the negative-log IC50 (pIC50) in series [11] was 4.84; in [12], below 4.60; in series [13], 5.44. In series [7], the IC50 at 20 h was above 28.7 µM.
For `C[C@]1(C(=O)NCCCNCCCCNCCCNC(=O)[C@@]2(C)CCC[C@]3(C)c4cc(O)ccc4CC[C@@H]23)CCC[C@]2(C)c3cc(O)ccc3CC[C@@H]12.O=C(O)C(F)(F)F.O=C(O)C(F)(F)F`, the minimum inhibitory concentration (MIC) in series [1] is above 33.9 µM; in series [2], above 33.9 µM; in [3], above 33.9 µM; in series [4] it was at most 0.26 µM; in series [6], 17 µM; in series [14] it was 26.5 µM. Besides, the minimal inhibitory concentration (MIC) in series [8] and in [9] was above 33.9 µM throughout. Besides, the 50% inhibitory concentration (IC50) at 20 h in [7] is above 33.9 µM. The selectivity ratio in series [10] was above 130.
`C[C@]1(C(=O)NCCCNCCCCN)CCC[C@]2(C)c3cc(OC(=O)NCCCNCCCCN)ccc3CC[C@@H]12.O=C(O)C(F)(F)F.O=C(O)C(F)(F)F.O=C(O)C(F)(F)F.O=C(O)C(F)(F)F`: the MIC in series [1] is above 31.1 µM; in series [2], above 31.1 µM; in series [3], above 31.1 µM; in series [4] it was above 31.1 µM; in series [5], 25 µM; in series [6], above 31.1 µM. For the same compound, the MIC in [14] is 25 µM; in series [8], above 31.1 µM; in [9], above 31.1 µM. Besides, the IC50 at 20 h in series [7] was above 31.1 µM.
For the compound `C[C@]1(C(=O)NCCCNCCCCCCCCCCN)CCC[C@]2(C)c3cc(OC(=O)NCCCNCCCCCCCCCCN)ccc3CC[C@@H]12.O=C(O)C(F)(F)F.O=C(O)C(F)(F)F.O=C(O)C(F)(F)F.O=C(O)C(F)(F)F`, the MIC was above 26.7 µM in [1]; above 26.7 µM in series [2]; above 26.7 µM in series [3]; 26.7 µM in [4]; 50 µM in series [5]; above 26.7 µM in series [6]. In addition, the MIC in [14] was 3.12 µM; in series [8], above 26.7 µM; in [9], above 26.7 µM. Further, in series [7], the IC50 at 20 h was 20.6 µM.
Regarding `C[C@@]12CCC[C@](C)(C(=O)O)[C@H]1CCc1ccc(OC(=O)CCCNCCCCCCNCCCNC(=O)Oc3ccc4c(c3)[C@@]3(C)CCC[C@](C)(C(=O)O)[C@@H]3CC4)cc12.O=C(O)C(F)(F)F.O=C(O)C(F)(F)F`, the MIC in series [1] is above 30.2 µM; in series [2], 30.2 µM; in [3] it was above 30.2 µM; in [4], 30.2 µM; in series [6], 30.2 µM; in series [8], above 30.2 µM. Further, the MIC in [9] was above 30.2 µM. Also, the pIC50 in series [11] was 4.84; in [13], 5.44. Also, in [7], the half-inhibitory concentration (IC50) at 20 h was above 30.2 µM.
As to `C[C@]1(C(=O)NCCCNCCCCCCN)CCC[C@]2(C)c3cc(OC(=O)NCCCNCCCCCCN)ccc3CC[C@@H]12.O=C(O)C(F)(F)F.O=C(O)C(F)(F)F.O=C(O)C(F)(F)F.O=C(O)C(F)(F)F`, the MIC in series [1] was above 29.5 µM; in series [2], above 29.5 µM; in series [3], above 29.5 µM; in series [4] it was above 29.5 µM; in series [6], above 29.5 µM; in series [14], 50 µM. In addition, the MIC in series [8] and in series [9] was above 29.5 µM throughout. The IC50 at 20 h in series [7] is above 29.5 µM.

The values above are taken from ChEMBL document CHEMBL5143685, “Valorisation of the diterpene podocarpic acid - Antibiotic and antibiotic enhancing activities of polyamine conjugates” (Bioorg Med Chem, 2022).
